Ki data for 1 compound are collected here from BindingDB's records for doi:10.1124/jpet.302.1.374 (University of Rochester, 2002).

Assay [1] has as its target Kappa-type opioid receptor (Cavia porcellus, UniProt P41144).
For assay [2], the target named is Delta-type opioid receptor (Sus scrofa, UniProt P79291).

Each structure is given as a SMILES string.

Chain of Delta-type opioid receptor (P79291 whole entry): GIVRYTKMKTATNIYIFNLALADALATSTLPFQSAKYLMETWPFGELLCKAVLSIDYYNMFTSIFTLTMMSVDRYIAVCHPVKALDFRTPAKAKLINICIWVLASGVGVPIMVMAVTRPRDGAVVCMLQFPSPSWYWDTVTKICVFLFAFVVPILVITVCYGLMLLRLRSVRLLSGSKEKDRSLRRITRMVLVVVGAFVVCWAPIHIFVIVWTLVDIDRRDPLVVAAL
Chain of Kappa-type opioid receptor (P41144 whole entry): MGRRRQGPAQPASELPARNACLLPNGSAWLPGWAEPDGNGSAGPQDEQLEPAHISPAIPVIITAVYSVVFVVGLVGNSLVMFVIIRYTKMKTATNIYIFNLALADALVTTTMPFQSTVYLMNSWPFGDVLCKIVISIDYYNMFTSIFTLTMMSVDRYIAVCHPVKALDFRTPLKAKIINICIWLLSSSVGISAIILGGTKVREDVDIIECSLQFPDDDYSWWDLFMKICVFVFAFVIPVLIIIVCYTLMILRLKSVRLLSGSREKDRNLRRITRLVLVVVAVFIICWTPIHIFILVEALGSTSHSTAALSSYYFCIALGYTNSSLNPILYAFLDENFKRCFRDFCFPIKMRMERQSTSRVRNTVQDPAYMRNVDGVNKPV

As usually defined, the Ki is the dissociation constant of the complex between target and ligand, obtained from inhibition or displacement. A high value points to weaker binding. Turning to `C[C@@H]1[C@@H]2Cc3ccc(O)cc3[C@@]1(C)CCN2CC1CC1` [(SSS)-12-Cyclopropylmethyl-13-methyl-12-aza-tricyclo[9.1.1.0*3,8*]trideca-3(8),4,6-trien-6-ol(cyclazocine)], the figures for the Ki in assay [1] and in assay [2] were 0.18 nM and 1.1 nM, respectively.
